Data from patent US20220356170A1, “SREBP INHIBITOR COMPRISING A THIOPHENE CENTRAL RING” (Capulus Therapeutics, LLC, priority 2019, published 2022).

How the values were obtained:
Assay in all cases: Cancer cell growth inhibition, Sulforhodamine B
Type in all cases: cell-based
SKMEL28 = details: Homo sapiens, SK-MEL-28; SKMEL28 (skin), 72 hr; Non-Responder Cell Lines with IC50 >10 uM or Not Determined
Protocol: (§1) The ability of select compounds to inhibit cell growth in various cancer cell lines are evaluated. […] The cell lines shown in Table 5 have reduced growth by at least 50% at 10 uM or lower over 72 hr treatment in growth media. The cell lines shown in Table 6 have reduced growth by at least 50% with an IC50 greater than 10 uM.
(§2) Six 10-fold compound dilutions are prepared in DMSO (e.g. 10 mM, 1 mM, 100 uM, 10 uM, 1 uM, and 0.1 uM). Single data points are acquired for each concentration. The final concentration of DMSO is 0.1%. The duration of the treatment is 72 hr. Growth inhibition is measured using Sulforhodamine B in a protein staining assay. Activity of the agents is determined by evaluation the following parameters: IC50, GI50, IC10, TGI, LC50, IC90, and GI90 (where these values can be calculated).

EFO21 = details: Homo sapiens, EFO-21; EFO21 (ovary), 72 hr; Responder Cell Lines
Protocol: as §1, §2

A2780 = details: Homo sapiens; A2780 (ovary), 72 hr; Responder Cell Lines
Protocol: as §1, §2

RD = details: Homo sapiens; RD (muscle), 72 hr; Non-Responder Cell Lines with IC50 >10 uM or Not Determined
Protocol: as §1, §2

LOVO = details: Homo sapiens; LOVO (colon), 72 hr; Responder Cell Lines
Protocol: as §1, §2

SKNSH = details: Homo sapiens, SK-N-SH, 72 h, SKNSH (brain)
Protocol: as §1, §2

OVCAR4 = details: Homo sapiens, OVCAR-4; OVCAR4 (ovary), 72 hr; Non-Responder Cell Lines with IC50 >10 uM or Not Determined
Protocol: as §1, §2

CALU6 = details: Homo sapiens, Calu-6; CALU6 (lung), 72 hr; Non-Responder Cell Lines with IC50 >10 uM or Not Determined
Protocol: as §1, §2

SU-DHL-6 = details: Homo sapiens, SU-DHL-6, 72 h, SU-DHL-6 (hematological)
Protocol: as §1, §2

NCIH82 = details: Homo sapiens, NCI-H82, 72 h, NCIH82 (lung)
Protocol: as §1, §2

MDAMB436 = details: Homo sapiens, MDA-MB-436; MDAMB436 (breast), 72 hr; Non-Responder Cell Lines with IC50 >10 uM or Not Determined
Protocol: as §1, §2

A549 = details: Homo sapiens; A549 (lung), 72 hr; Responder Cell Lines
Protocol: as §1, §2

PLCPRF5 = details: Homo sapiens, PLC-PRF-5, 72 h, PLCPRF5 (liver)
Protocol: as §1, §2

SW620 = details: Homo sapiens, SW-620; SW620 (colon), 72 hr; Non-Responder Cell Lines with IC50 >10 uM or Not Determined
Protocol: as §1, §2

PANC1 = details: Homo sapiens, PANC-1; PANC1 (pancreas), 72 hr; Non-Responder Cell Lines with IC50 >10 uM or Not Determined
Protocol: as §1, §2

PANC1005 = details: Homo sapiens, Panc1005, 72 h, PANC1005 (pancreas)
Protocol: as §1, §2

UMUC3 = details: Homo sapiens; UMUC3 (bladder), 72 hr; Non-Responder Cell Lines with IC50 >10 uM or Not Determined
Protocol: as §1, §2

HT1080 = details: Homo sapiens, HT-1080; HT1080 (connective tissue), 72 hr; Responder Cell Lines
Protocol: as §1, §2

THP-1 = details: Homo sapiens, THP-1, 72 h, THP-1 (hematological)
Protocol: as §1, §2

L-363 = details: Homo sapiens; L-363 (hematological), 72 hr; Responder Cell Lines
Protocol: as §1, §2

SAOS2 = details: Homo sapiens, SAOS-2; SAOS2 (bone), 72 hr; Non-Responder Cell Lines with IC50 >10 uM or Not Determined
Protocol: as §1, §2

MINO = details: Homo sapiens, 72 h, MINO (hematological)
Protocol: as §1, §2

OVCAR3 = details: Homo sapiens, OVCAR-3, 72 h, OVCAR3 (ovary)
Protocol: as §1, §2

[1] = Non-Responder Cell Lines with IC50 >10 uM or Not Determined

Measured: IC50

CC(C)(O)c1cc(-c2csc(-c3ccc(C(=O)N4CCC(O)CC4)cc3Cl)c2)ccn1 [Compound 1, (3-chloro-4-(4-(2-(2-hydroxypropan-2-yl)pyridin-4-yl)thiophen-2-yl)phenyl)(4-hydroxypiperidin-1-yl)methanone]
> 10 µM: SKMEL28 | RD | SKNSH; [1] | OVCAR4 | CALU6 | SU-DHL-6; [1] | NCIH82; [1] | MDAMB436 | PLCPRF5; [1] | SW620 | PANC1 | PANC1005; [1] | UMUC3 | THP-1; [1] | SAOS2 | MINO; [1] | OVCAR3; [1]
< 10 µM: EFO21 | A2780 | LOVO | SKNSH; Responder Cell Lines | SU-DHL-6; Responder Cell Lines | NCIH82; Responder Cell Lines | A549 | PLCPRF5; Responder Cell Lines | PANC1005; Responder Cell Lines | HT1080 | THP-1; Responder Cell Lines | L-363 | MINO; Responder Cell Lines | OVCAR3; Responder Cell Lines
